Experimental data published in patent US5512581A, “Iminoxycarboxylates and derivatives as inhibitors of leukotriene biosynthesis” (Abbott Laboratories, priority 1995, dated 1996).

How the values were obtained:
[1] = test system: 5-Lipoxygenase; assay: Inhibition of calcium ionophore-induced LTB4 formation in human polymorphonuclear leukocytes (PMNL); assay type: cell-based; conditions: stimulated LTB4 formation in human PMNL; calcium ionophore 8.3 μM, 15 min preincubation
Procedure: Inhibition of leukotriene biosynthesis was evaluated in an assay involving calcium ionophore-induced LTB4 expressed in human polymorphornuclear leukocytes (PMNL). Human PMNL isolated from heparinized (20 USP units/mL) venous blood (25 mL) obtained from healthy volunteers was layered over an equal volume of Ficoll-Hypaque Mono-Poly Resolving Medium (ICN Flow, Costa Mesa, Calif.) and centrifugated at 400 x g for 40 min at 20° C. The PMNL was collected, erythrocytes lysed and washed 2x and suspended at 1.0×10^7 cells/mL in Earle's balanced salt solution with 17 mM Earle's HEPES. Aliquots of the cell suspension were preincubated with test compounds dissolved in DMSO (final concentration <2%) for 15 min. and stimulated with calcium ionophore (final concentration 8.3 μM) for 10 min. at 37° C. Incubations were stopped with the addition of two volumes of ice-cold methanol followed by centrifuging the cell suspensions at 4° C. for 10 min at 450 x g. The mount of LTB4 in the methanol extract was analyzed by enzyme-linked immunoassay or by HPLC analysis.

[2] = test system: leukotriene biosynthesis; assay: In vivo leukotriene inhibition in rat peritoneal anaphylaxis model; conditions: oral gavage 1 h before antigen challenge; for % Inhibition (dose): 30 μmol/kg
Procedure: Inhibition of the biosynthesis of leuktrienes in vivo after oral administration of compound was determined using a rat peritoneal anaphylaxis model in a similar manner as that described by Young and coworkers (Young, P. R.; Dyer, R. D.; Carter, G. W. Fed. Proc., Fed. Am. Soc. Exp. Biol. 1985, 44, 1185). In this model rats were injected intraperitoneally (ip) with rabbit antibody to bovine serum albumin (BSA) and three hours later injected ip with BSA to induce an antgen-antibody response. Rats were sacrificed 15 minutes after this challenge and the peritoneal fluids were collected and analyzed for leukotriene levels. Test compounds were administered by gavage one hour prior to the antigen challenge. Percent inhibition values were determined by comparing the treatment group to the mean of the control group.

[3] = test system: leukotriene; assay: In vivo leukotriene inhibition in rat pleural inflammation (A23187 ionophore-induced); conditions: dosed in 0.2% methocel 1 h before intrapleural A23187, male rats; for ED50: Rattus norvegicus
Procedure: Pleural inflammation was induced in male rats following the method of Rao et al (Rao, T. S., Currie, J. L., Shaffer, A. F., Isakson, P. C., (1993) Evaluation of 5-lipoxygenase Inhibitors, Zileuton, A-78773 and ICI D-2138 in an Ionophore (A-23 187) Induced Pleural Inflammation Model in the Rat. Life Sciences, 53: 147). Rats were dosed with experimental compounds in 0.2% methocel one hour prior to the intrapleural injection of the calcium ionophore, A23 187. The rats where lightly anesthetized with Pentrane (Abbott Laboratories) and injected intrapleurally with 0.5 ml of 2% ethanol in injectable saline (Abbott Laboratories) containing 20 ug of A23187 (Cal BioChem-Novabiochem). Thirty minutes later the animals were euthanised and the pleural cavities lavaged with ice cold saline (Abbott Laboratories). The lavage fluid was then added to ice cold methanol (final methanol concentration 30%) to lyse cells and precipitate protein. Eicosanoids were determined by enzyme immunoassay by standard methods.

Row | Compound | IC50 [1] [nM] | further results
1 | O=C(O)c1ccc(C=NOC(c2ccc(OCc3ccc4ccccc4n3)cc2)C2CCCCC2)cc1 (stereo not shown) [Example 6, O-Cyclohexyl-(4-(2-quinolylmethoxy)phenyl)methyl!-4-carboxybenzaldoxime] | 32 | –
2 | O=C(O)C=NOC(CCCc1ccc(Cl)cc1)c1ccc(OCc2ccc3ccccc3n2)cc1 (stereo not shown) [Example 12, 4-(4-Chlorophenyl)-1-(4-(2-quinolylmethoxy)phenyl) butyl!iminoxyacetic acid] | 55 | –
3 | O=C(O)c1ccc(C=NOC(CC2CCCCC2)c2ccc(OCc3cscn3)cc2)cc1 (stereo not shown) [Example 19, O-2-cyclohexyl-1-(4-(4-thiazolylmethoxy)phenyl)eth-1-yl!-4-carboxybenzaldoxime] | – | % Inhibition (dose) [2]: 81%
4 | COC(=O)/C(C)=N\OC(c1ccc(OCc2ccc3ccccc3n2)cc1)C1CCCCC1 (stereo not shown) [Example 30, Cyclohexyl-(4-(2-quinolylmethoxy)phenyl)methyl!-Z-2-iminoxypropionic acid methyl ester] | 170 | –
5 | C/C(=N/OC(c1ccc(OCc2ccc3ccccc3n2)cc1)C1CCCCC1)C(=O)O (stereo not shown) [Example 32, cyclohexyl-(4-(2-quinolylmethoxy)phenyl)methyl!-Z-2-iminoxypropionic acid] | 170 | –
6 | COC(=O)/C(C)=N/O[C@@H](c1ccc(OCc2ccc3ccccc3n2)cc1)C1CCCCC1 [Example 34] | 470 | –
7 | C/C(=N\O[C@@H](c1ccc(OCc2ccc3ccccc3n2)cc1)C1CCCCC1)C(=O)O [Example 35, (R)-Cyclohexyl-(4-(2-quinolylmethoxy)phenyl)methyl!-E-2-iminoxypropionic acid] | 70 | –
8 | COC(=O)/C(C)=N/O[C@H](c1ccc(OCc2ccc3ccccc3n2)cc1)C1CCCCC1 [Example 36, (S)-Cyclohexyl-(4-(2-quinolylmethoxy)phenyl)methyl!-E-2-iminoxypropionic acid methyl ester] | 50 | –
9 | C/C(=N\OC(Cc1ccccc1)c1ccc(OCc2ccc3ccccc3n2)cc1)C(=O)O (stereo not shown) [Example 42, 2-phenyl-1-(4-(2-quinolylmethoxy)phenyl)eth-1-yl!-E-2-iminoxy propionic acid] | < 100 | –
10 | C/C(=N\OC(c1ccc(OCc2ccc3ccccc3n2)cc1)c1cccs1)C(=O)O (stereo not shown) [Example 43, 2-thienyl-(4-(2-quinolylmethoxy)phenyl)methyl!-E-2-iminoxy propionic acid] | < 100 | –
11 | C/C(=N\OC(c1ccc(OCc2ccc3ccccc3n2)cc1Cl)C1CCCCC1)C(=O)O (stereo not shown) [Example 44, Cyclohexyl-(2-chloro4-(2-quinolylmethoxy)phenyl)methyl!-E-2-iminoxypropionic acid] | < 100 | –
12 | C/C(=N\OC(c1ccc(OCc2ccc3ccccc3n2)c(Cl)c1)C1CCCCC1)C(=O)O (stereo not shown) [Example 45, Cyclohexyl-(3-chloro-4-(2-quinolylmethoxy)phenyl)methyl!-E-2-iminoxypropionic acid] | < 100 | ED50 [3]: 1.2 mg/kg
13 | C/C(=N\OC(CC(C)(C)c1ccccc1)c1ccc(OCc2ccc3ccccc3n2)cc1)C(=O)O (stereo not shown) [Example 48, 3-methyl-3-phenyl-1-(4-(2-quinolylmethoxy)phenyl)but-1-yl!-E-2-iminoxypropionic acid] | < 100 | ED50 [3]: 2 mg/kg
14 | CC(C)(CC(O/N=C/C(=O)O)c1ccc(OCc2ccc3ccccc3n2)cc1)c1ccccc1 (stereo not shown) [Example 49, 3-methyl-3-phenyl-1-(4-(2-quinolylmethoxy)phenyl)but-1-yl!-E-2-iminoxyacetic acid] | < 100 | –
15 | CCCCC(O/N=C(\C)C(=O)O)c1ccc(OCc2ccc3ccccc3n2)cc1 (stereo not shown) [Example 50, 4-(2-quinolylmethoxy)phenylpent-1-yl!-E-2-iminoxypropionic acid] | < 100 | –
16 | CCCCC(O/N=C/C(=O)O)c1ccc(OCc2ccc3ccccc3n2)cc1 (stereo not shown) [Example 51] | < 100 | –
17 | CC(=NOCc1ccc(OCc2ccc3ccccc3n2)cc1Cl)C(=O)O [Example 57, 2-chloro-(4-(2-quinolylmethoxy)phenyl)methyl!-2-iminoxy propionic acid] | < 100 | –
18 | CC(=NOC(c1ccc(OCc2ccc3ccccc3n2)cc1)C1CCCCCC1)C(=O)O (stereo not shown) [Example 58, Cycloheptyl-(4-(2-quinolylmethoxy)phenyl)methyl!-2-iminoxy propionic acid] | < 100 | –
19 | C/C(=N\OC[C@@H](c1ccc(OCc2ccc3ccccc3n2)cc1)C1CCCC1)C(=O)O [Example 62] | 36 | –

More lines, main results first:

Row | IC50 [1] [nM] | Compound | further results
20 | 21 | O=C(O)C=NOC(c1ccc(OCc2ccc3ccccc3n2)cc1)C1CCCCC1 (stereo not shown) [Example 1, Cyclohexyl-(4-(2-quinolylmethoxy)phenyl)methyl!iminoxyacetic acid] | % Inhibition (dose) [2]: 82%
21 | 4 | CC(=NOC(c1ccc(OCc2ccc3ccccc3n2)cc1)C1CCCCC1)C(=O)O (stereo not shown) [Example 2, Cyclohexyl-(4-(2-quinolylmethoxy)phenyl)methyl!-2-iminoxy propionic acid] | ED50 [2]: 1.2 mg/kg; % Inhibition (dose) ([3]; 30 μmol/kg): 89%
22 | 4 | O=C(O)c1ccc(C=NOC(CC2CCCCC2)c2ccc(OCc3ccc4ccccc4n3)cc2)cc1 (stereo not shown) [Example 14, O-2-Cyclohexyl-1-(4-(2-quinolylmethoxy)phenyl)eth-1-yl!-4-carboxybenzaldoxime] | –
23 | 6 | CC(=NOC(CC1CCCCC1)c1ccc(OCc2ccc3ccccc3n2)cc1)C(=O)O (stereo not shown) [Example 15, 2-Cyclohexyl-1-(4-(2-quinolylmethoxy)phenyl)eth-1-yl!-2-iminoxypropionic acid] | –
24 | 5 | O=C(O)C=NOCC(c1ccc(OCc2ccc3ccccc3n2)cc1)C1CCCCC1 (stereo not shown) [Example 26] | –
25 | 8 | O=C(O)C=NOCC(c1ccc(OCc2ccc3ccccc3n2)cc1)C1CCCCCC1 (stereo not shown) [Example 27, 2-Cycloheptyl-2-(4-(2-quinolylmethoxy)phenyl)eth-1-yl!iminoxyacetic acid] | ED50 [2]: 0.7 mg/kg
26 | 5 | CC(C)(C=NOCC(c1ccc(OCc2ccc3ccccc3n2)cc1)C1CCCCCC1)C(=O)O (stereo not shown) [Example 28, 2-cycloheptyl-2-(4-(2-quinolylmethoxy)phenyl)eth-1-yl!-3-iminoxy-2,2-dimethylpropionic acid] | –
27 | 25 | COC(=O)/C(C)=N/OC(c1ccc(OCc2ccc3ccccc3n2)cc1)C1CCCCC1 (stereo not shown) [Example 31, Cyclohexyl-(4-(2-quinolylmethoxy)phenyl)methyl!-E-2-iminoxypropionic acid methyl ester] | –
28 | 15 | C/C(=N\OC(c1ccc(OCc2ccc3ccccc3n2)cc1)C1CCCCC1)C(=O)O (stereo not shown) [Example 33, cyclohexyl-(4-(2-quinolylmethoxy)phenyl)methyl!-E-2-iminoxypropionic acid] | –
29 | 6 | C/C(=N\O[C@H](c1ccc(OCc2ccc3ccccc3n2)cc1)C1CCCCC1)C(=O)O [Example 37, (S)-Cyclohexyl-(4-(2-quinolylmethoxy)phenyl)methyl!-E-2-iminoxypropionic acid] | –
30 | 17 | O=C(O)/C=N/OC(c1ccc(OCc2ccc3ccccc3n2)cc1)C1CCCCC1 (stereo not shown) [Example 40, Cyclohexyl-(4-(2-quinolylmethoxy)phenyl)methyl!-E-iminoxyacetic acid] | –
31 | 30 | CC(=NOCC(c1ccc(OCc2ccc3ccccc3n2)cc1)C1CCCCC1)C(=O)O (stereo not shown) [Example 55, Cyclohexyl-1-(4-(2-quinolylmethoxy)phenyl)eth-2-yl!-2-iminoxy propionic acid] | –
